Assay [1] relates to BV2 cells. The experiment in a line: NOX inhibition assay in BV2 cells (LPS-induced reactive oxygen species, lucigenin). Format: cell-based, mouse. Conditions: BV2 cells pre-treated 30 minutes, LPS 10 ng/ml, 0-10000 nM. The method, then:
BV2 cells, a mouse microglial cell line, were washed with Hank's balanced salt solution (HBSS) and stabilized by incubation at 37° C. in HBSS for 30 minutes. Then, the compounds (compound of Example 1 or compound of Example 2) were treated at various concentrations (0 nM, 1 nM, 10 nM, 100 nM, 1000 nM, and 10000 nM). After 30 minutes, 10 ng/ml of lipopolysaccharide (LPS) and 200 μM of lucigenin were added to the cells. Lucigenin chemiluminescence induced by active oxygen (reactive oxygen species) was detected at 10-second intervals for 15 minutes using a luminometer (GLOMA, Promega).

For assay [2], the system named is rodent brain tumor glioblast cell line 7080. The experiment in a line: Glioblastoma cell growth inhibition, cell line 7080. Format: cell-based. Conditions: all concentrations (0.5 μm, 1 μM, and 2 μM). On the procedure: (§1) Cell growth experiments were performed to determine the effect of the compounds according to The present disclosure on the growth of brain tumor glioblast cells. Specifically, the rodent brain tumor glioblast cell line 7080 and the human glioblast cell line U87 were treated with the compound of Example 2 according to The present disclosure to determine the cell growth inhibitory effects, and the results are shown in FIG. 18.

Assay [3] concerns BV2 cells. The experiment in a line: Microglia (BV2) migration, transwell. It counts as cell-based, mouse. Conditions: LPS 1 μg/ml, 24 hours, compound 10 μM. The method, then: To determine the migration level of BV2 cells, 8 μm-sized transwells (35224, SPL) were used. 1×10^5 BV2 cells were seeded into the insertion transwells, and the lower wells were treated with the compound of Example 2 or Apocynin (NOX inhibitor) along with lipopolysaccharide (LPS, 1 μg/ml) as stimulus. After 24 hours of incubation, BV2 cells that migrated to the bottom of the insertion transwells were stained with crystal violet.

The test system of assay [4] is human glioblast cell line U87. Description: Glioblastoma cell growth inhibition, U87. Particulars: 2 μM, starting 4 days after treatment. It counts as cell-based. The method, then:
as §1

The subject of the next assay is Tg−APP/PS1 animal models. Description: Tg-APPswe/PS1dE9 Alzheimer's animal model. It counts as in vivo, mice. On the procedure: The Tg−APP/PS1 animal models were used to determine the effect of compounds of Examples according to The present disclosure on Alzheimer's disease. This animal models show amyloid plaque deposition as early as 6.5 months and severe cognitive impairment at 6 to 8 months. The Tg−APP/PS1 animal models were administered with vehicle or the Example compound (i.e., Example 2 was used) at 30 mg/kg or 10 mg/kg every other day from 6.5 to 8 months. All behavioral testing occurred between 7.5 and 8 months, and brain tissues for biopsy were obtained by perfusion after behavioral testing. To confirm amyloid beta plaques, the brain tissues obtained in the above part (1)_1) were incubated in 1% Thioflavin-S solution for 8 to 20 minutes and washed with ethanol and distilled water. The stained tissues were sectioned and the number of plaques or stained areas were quantified. To confirm the changes in astrocytes and microglia by administration of oxadiazole derivative compounds, immunostaining was performed using GFAP antibody, a marker for astrocytes, and Iba1 antibody, a marker for microglia. The novel object recognition (NOR) and novel location recognition (NLR) tests are behavioral assessments that evaluate memory based on the disparity in search time between a novel object or an object relocated to a new position compared to a familiar object. Each experimental animal was placed in a square box with two identical objects and allowed to familiarize for 10 minutes (familiarization #1). Ten minutes after the first familiarization was completed, the objects used in the first familiarization were returned to their original position and subjected to a second familiarization (familiarization #2). After 2 hours, only one of the objects used in familiarization was replaced with a novel object and placed in the same position and the exploration time of the familiar and novel objects (2 h NOR) was determined. After 15 minutes, the familiar object was repositioned, and the exploration time of both objects was checked (NLR). After 22 hours (24 hours after familiarization), the novel object and the familiar object were placed and the exploration time was determined (24 h NOR). water maze test is frequently used to assess memory functions such as memory formation, consolidation, and retrieval effects by assessing the time it takes for an experimental animal to find a platform beneath the water surface, relying on environmental cues. Therefore, the treatment effect on Alzheimer's disease was confirmed using the model used in the water maze test above. The passive avoidance test is a fear-motivated test mainly used to evaluate short-term or long-term memory in experimental animals. The passive avoidance test evaluates fear memory by utilizing the innate tendency of experimental animals to prefer dark areas and avoid bright areas, delivering an electric shock to the paw upon entry into a dark area, and measuring the time it takes for the animal to re-enter the dark area upon re-exposure to the same environment.

Setting [5] is: parietal cortex, piriform cortex, and hippocampus.

On to `O=C(Nc1nnc(-c2cccc(Cl)c2)o1)c1cc(F)cc(C(F)(F)F)c1` [Example 1, N-(5-(3-chlorophenyl)-1,3,4-oxadiazol-2-yl)-3-fluoro-5-(trifluoromethyl)benzamide], for which the “production of reactive oxygen species” value in the assay on BV2 cells [1] is “significantly reduced”.
Regarding `O=C(Nc1nnc(-c2ccccc2)o1)c1ccc(F)c(C(F)(F)F)c1` [Example 2, 4-fluoro-N-(5-phenyl-1,3,4-oxadiazol-2-yl)-3-(trifluoromethyl)benzamide], the “production of reactive oxygen species” value with BV2 cells [1] is reported as “significantly reduced”. For the same compound, in assay [2], the “glioma cell growth of glioblast cell line 7080” value is listed as “strongly inhibited”. Also, the “LPS-induced increase in number of migrated BV2 cells” value with BV2 cells [3] is “offset”. Further, in assay [4], the “cell growth of human glioblast cell line U87” value was “cell growth inhibition was observed”. In the assay on Tg−APP/PS1 animal models (30 mg/kg), the “exploration time for novel objects than familiar objects (2 h NOR)” value is recorded as “significantly increase”, the “exploration time for novel objects than familiar objects (24 h NOR)” value was “remarkable increase” and the “exploration time for objects located in a novel location (NLR)” value is given as “significant increase”. In the assay on Tg−APP/PS1 animal models (30 mg/kg or 10 mg/kg every other day from 6.5 to 8 months), the “amyloid plaque deposition (Thioflavin-S staining)” value is “highly significant ameliorative effect”. The “water maze test, time required to locate platform” value in the assay on Tg−APP/PS1 animal models (five consecutive days of training) is reported as “memory acquisition ability equivalent to wild-type mice”. Further, in the assay with Tg−APP/PS1 animal models (setting [5]), the “activation of astrocytes (GFAP immunostaining)” value is listed as “effectively reduced” and the “activation of microglia (Iba1 immunostaining)” value was “effectively reduced”. In addition, the “passive avoidance test, time to enter the dark area” value in the assay on Tg−APP/PS1 animal models (post-shock, 24 to 120 hours) is “fear memory retention comparable to that of wild-type animals”.

The values are drawn from patent publication US20250051293A1, “NOVEL OXADIAZOLE DERIVATIVE AND USE THEREOF” (CELROS BIOTECH, priority 2021, published 2025).
